Test results taken from patent US5599813A, “Thiazolopyrimidine derivatives” (Daiichi Pharmaceutical Co., Ltd., priority 1993, dated 1997).
Counter-ions that a name gives are not always drawn.

Tested on: Chorioallantoic membrance (CAM)
Test: CAM angiogenesis Inhibition Test
Format: in vivo, chicken (4 to 5 day old fertilized egg)
Conditions: CAM of fertilized chicken egg, two days after; for Inhibition activity (%): 10 μl/egg in physiological saline or DMSO, 37.6° C., control vascularization settled as 100; for Judgement: class of inhibition activity, significance by Student's t-test, 2880 min
Method: Test was carried out by […]-Folkman's method (Nature, 297, 307 (1982)), but partially modified as described in Exp. Path. 30, 143 (1986). Chorioallantoic membrance (CAM) of 4 to 5 day old fertilized chicken egg (Babucock) was exposed. […] Vascularization (angiogenesis) of the control group was settled as 100 and the degree to the test sample was calcurated and expressed as inhibition activity. The significance of activity was determined by Student's t-test and the case over 50 % was indicated to + and the case below 50 % to i as shown in the following table.

Cl.O=C(Nc1cc(Cl)cc(Cl)c1)C1=C(C2CCC2)N2CCCN=C2S1 [Example 2, N-(3,5-Dichlorophenyl)-3-cyclobutyl-6,7-dihydro-5H-thiazolo[3,2-a]pyrimidine-2-carboxamide hydrochloride]
Inhibition activity (%): 82.5%
Judgement: + (over 50 %)

CCCCCCCCc1ccc(NC(=O)C2=C(C3CCC3)N3CCCN=C3S2)cc1.Cl [Example 8, N-(4-Octylphenyl)-3-cyclobutyl-6,7-dihydro-5H-thiazolo[3,2-a]pyrimidine-2-carboxamide hydrochloride]
Inhibition activity (%): 82.7%
Judgement: + (over 50 %)

Cl.O=C(Nc1cc(Cl)cc(Cl)c1)C1=C(C2CCCC2)N2CCCN=C2S1 [Example 9, N-(3,5-Dichlorophenyl)-3-cyclopentyl-6,7-dihydro-5H-thiazolo[3,2-a]pyrimidine-2-carboxamide hydrochloride]
Inhibition activity (%): 37.2%

CCCC1=C(C(=O)Nc2cc(Cl)cc(Cl)c2)SC2=NCCCN21 [Example 13, N-(3,5-dichlorophenyl)-3-propyl-6,7-dihydro-5H-thiazolo[3,2a-]pyrimidine-2-carboxamide hydrochloride]
Inhibition activity (%): 76.5%
Judgement: + (over 50 %)

CCCC1=C(C(=O)Nc2ccc(C(C)(C)C)cc2)SC2=NCCCN21.Cl [Example 16, N-(4-tert-Butylphenyl)-3-propyl-6,7-dihydro-5H-thiazolo[3,2-a]pyrimidine-2-carboxamide hydrochloride]
Inhibition activity (%): 57.1%
Judgement: + (over 50 %)

CCCCCCCCc1ccc(NC(=O)C2=C(CCC)N3CCCN=C3S2)cc1.Cl [Example 19, N-(4-n-Octylphenyl)-3-propyl-6,7-dihydro-5H-thiazolo[3,2-a]-pyrimidine-2-carboxamide hydrochloride]
Inhibition activity (%): 69.3%
Judgement: + (over 50 %)

CCCCC1=C(C(=O)Nc2cc(F)cc(F)c2)SC2=NCCCN21.Cl [Example 39, N-(3,5-Difluorophenyl)-3-butyl-6,7-dihydro-5H-thiazolo[3,2-a]pyrimidine-2-carboxamide hydrochloride]
Inhibition activity (%): 32.3%

CCCCCCCCc1ccc(NC(=O)C2=C(CCC#N)N3CCCN=C3S2)cc1.Cl [Example 82, N-(4-Octylphenyl)-3-(2-cyanoethyl)-6,7-dihydro-5H-thiazolo-[3,2-a]pyrimidine-2-carboxamide hydrochloride]
Inhibition activity (%): 88.4%
Judgement: + (over 50 %)

CCCC1=C(C(=O)Nc2ccc(SCCCCCC(=O)O)cc2)SC2=NCCCN21.Cl [Example 90, N-[4-(5-Carboxypentylthio)phenyl]-3-propyl-6,7-dihydro-5H-thiazolo[3,2-a]pyrimidine-2-carboxamide hydrochloride]
Inhibition activity (%): 93.2%
Judgement: + (over 50 %)

O=C(O)COC1=C(C(=O)Nc2cc(Cl)cc(Cl)c2)SC2=NCCCN21 [Example 114, N-(3,5-Dichlorophenyl)-3-carboxymethyloxy-6,7-dihydro-5H-thiazolo[3,2-a]pyrimidine-2-carboxamide]
Inhibition activity (%): 94.3%
Judgement: + (over 50 %)
